Test results as given in article PMC5065625, “Structure-mechanism-based engineering of chemical regulators targeting distinct pathological factors in Alzheimer's disease” (Nature Communications, 2016).

Tests used:
5 × FAD AD mouse model = assay: Cerebral amyloid pathology (ELISA, 4G8 immunohistochemistry, Congo red); format: in vivo; settings: 1 mg kg^−1 daily i.p., 30 days
Source text: The amyloidogenic characteristics of 5 × FAD mice have been described previously. In brief, 5 × FAD mice express the Swedish/London/Florida mutations of the human amyloid precursor protein (hAPP) and the M146L/L286V mutations of the human presenilin-1 (PSEN1). They develop the early and robust pathology of AD with the cognitive and behavioural impairments. The 5 × FAD mice have been widely used to test the possible efficacy of a compound targeted for AD[25][29]. We maintained the mice on a C57BL/6 × SJL hybrid background. All animal experiments were performed in accordance with the guidelines of the Asan Institute for Life Science for Laboratory Animal Care and Use (Seoul, Korea), where the animals had free access to water and food, and were housed on 12 h light/12 h dark cycle.
Chemicals used were freshly prepared shortly before administration to the animals. […]
We measured the levels of various types of Aβ in the brain as described previously. The protein fractions were serially prepared from the left hemispheres in PBS (pH 7.4), in 2% SDS and in 70% FA, and then subjected to the human Aβ40 and Aβ42 ELISA quantification according to the manufacturer's methods (Invitrogen, Carlsbad, CA, USA). The aggregated (Invitorgen) and oligomeric Aβ (82E1-specific; IBL International, Hamburg, Germany) ELISA quantifications were also performed using PBS fractions. The cerebral levels of Aβ40 and Aβ42 were represented as moles per gram of wet brain tissue, whereas the aggregated or oligomeric Aβ amounts were expressed as grams per gram of wet brain tissue.
12-μm sagittal sections of the brain were prepared from the right hemispheres on a cryostat (HM550; Microm, Walldorf, Germany), and mounted onto 1% poly-L-lysine-coated glass slides. […] The loads of amyloid deposits in the brain were expressed as the per cent area of 4G8-immunoreactive deposits or the number of congophilic plaques per mm^2 of a cortical region of interest.

metal-free Aβ40/Aβ42 = metal-free Aβ40/Aβ42 (Homo sapiens, UniProt P05067); assay: Aβ aggregation inhibition/disaggregation experiments (gel/western blot, TEM), metal-free; format: biochemical; settings: Aβ 25 μM, compound 50 μM, 37 °C, 24 h; gel/western blot and TEM
Chain of metal-free Aβ40/Aβ42 (P05067 672-711 limits assumed): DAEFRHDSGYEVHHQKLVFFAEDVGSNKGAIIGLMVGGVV
Description: The ability of 1–4 to control the aggregation of both metal-free Aβ and metal-Aβ in inhibition (Fig. 2) and disaggregation experiments (Supplementary Fig. 1) was evaluated using the two major Aβ isoforms (Aβ40/Aβ42)[1][2][3][6][16] found in the AD-affected brain. Molecular weight (MW) distributions and morphologies of the resulting Aβ species were determined by gel electrophoresis followed by western blotting (gel/western blot) and transmission electron microscopy (TEM). Generally, under the experimental conditions employed herein, compound-free Aβ samples with and without metal ions assemble into a distribution of large aggregates that are too big to penetrate into the gel matrix, which yields very little smearing in the gel/western blots, but they can be visualized by TEM. […]
Before experiments, Aβ40 or Aβ42 was dissolved in ammonium hydroxide (NH4OH; 1% v/v, aq). […] The concentration of the solution was determined by measuring the absorbance of the solution at 280 nm (ɛ=1,450 M^–1 cm^–1 for Aβ40; ɛ=1,490 M^–1 cm^–1 for Aβ42). […]
The Aβ samples from in vivo or in vitro experiments were analysed by gel electrophoresis followed by western blotting using an anti-Aβ antibody (6E10)[24][25][27][28][29]. […]

SMILES | Loads of Aβ deposits in the brain (5 × FAD AD mouse model; 4G8-immunoreactive or congophilic plaques) | Amounts of Aβ oligomers and aggregates (5 × FAD AD mouse model; ELISA, PBS fractions) | Total Aβ level in the brain versus vehicle (5 × FAD AD mouse model; PBS-, SDS- and FA-soluble Aβ40/Aβ42, ELISA) | Modulation of metal-free Aβ aggregation (metal-free Aβ40/Aβ42)
Nc1ccc(NCc2ccccn2)cc1 [compound 1, N^1-(pyridin-2-ylmethyl)benzene-1,4-diamine] | reduced the loads of Aβ deposits | decreased | significantly lower | 
CN(C)c1ccc(NCc2ccc[nH]2)cc1 [compound 4, N^1-((1H-pyrrol-2-yl)methyl)-N^4,N^4-dimethylbenzene-1,4-diamine] |  |  |  | pronounced influence on metal-free Aβ aggregation
